Experimental data: patent publication US20120157396A1, “PYRAZINAMIDE FOR IMMUNOSTIMULATION AND THE TREATMENT OF LEISHMANIASES” (priority 2009, published 2012)

Experiments:
L. major amastigotes = L. major amastigotes within J774 cells, parasite survival; format: cell-based
Procedure: To distinguish between leishmaniostatic and leishmanicidal effects, a time course survival curve was generated for J774 cultures infected with L. major.
Amastigotes were generated by infecting J774 murine macrophages. Infections were carried after seeding cells in 8-well Labtek chambers (Thermo Physic Scientific, Rochester N.Y.) at a concentration of 5×10^4 cells/well. To avoid multiplication, cells were incubated with mitomycin C at a concentration of 0.8 μg/ml for 16 h. Infective-stage promastigotes (metacyclics) of L. major were isolated from stationary cultures (4-5 day-old) by Ficoll enrichment, added to macrophage cultures (5 promastigotes: 1 cell) and kept overnight at 37° C. in the presence of 5% CO2 and DMEM with 10% FCS. Sixteen hours later, non-internalized promastigotes were then washed and replaced by culture medium containing the drug. Forty-eight hours later, wells were detached from the slides, stained with Diff-Quick (Dade Behring, Newark, Del.) and counted under light microscope. Parasite burden was determined by observation under light microscopy (1000×) as the number of amastigotes per one hundred J774 cells. Percentage of survival of amastigotes and MIC50 were calculated as above.

J774 cells = test: Cytokine (ELISA) and nitric oxide (Griess test) production in J774 cells; format: cell-based, murine; conditions: amphotericin B at the doses tested (0.1-1 μg/ml)
Procedure: The ability of J774 cells to produce cytokines in response to infection and/or treatment was also determined. Cells were infected, treated or activated as described above. The amount of the proinflammatory cytokines IL-12 and TNF-α (implicated in Thl response and parasite killing), as well as the repressive cytokine IL-10, was determined by ELISA in the culture supernatants. The level of nitric oxide was also determined in the same supernatants. PZA treatment alone increased cytokine production, especially IL-12 and TNF-α and NO release. […] Finally, to test the specificity of the immune activation by PZA, we determined the effect that amphotericin B treatment had on activation and cytokine expression by J774 cells.
J774 cells or bone marrow-derived cells were seeded onto 24-well plates at a concentration of 5×10^5 cells/ml. Twenty-four hours later, PZA was added to the wells at different concentrations in the absence or presence of L. major (1:5 parasite ratio). In some experiments, J774 cells were treated with amphotericin B (0.1, 0.5, or 1 μg/ml). Two control groups were also included in this experiment: a positive control of activation consisting in a group of uninfected cells treated with 100 ng/ml LPS and 10 IU IFN-γ as a positive control of activation, and a negative control of activation, consisting in uninfected, untreated cells. Cell cultures were maintained overnight, and then cultured for an additional 6 h with brefeldin A (10 μg/ml), harvested by scraping and fixed in 2% paraformaldehyde. Prior to staining, cells were incubated with an anti-Fc III/II receptor and 10% normal mouse serum (NMS) in PBS containing 0.1% BSA, 0.01% NaN3. Cells were permeabilized with saponin and stained for the surface markers CD80 (clone 16-10A1), CD86 (clone GL1), MHCI (clone 28-14-8), MHCII (clone M5/114.15.2) and for the cytokines IL-12p40/p70 (clone C17.8) and IL-10 (clone JESS-16E3). Incubations were carried out for 30 min on ice. All antibodies were purchased from BD Biosciences or eBioscience. For each sample, at least 50,000 cells were analyzed. The data were collected and analyzed using CELLQuest software and a FACScalibur flow cytometer (Becton Dickinson, San Jose, Calif.).

uninfected J774 cells = format: cell-based
Procedure: The potential cytotoxicity of PZA toward the mammalian cell line was determined by co-incubation of PZA with uninfected J774 cells for 48 h (10^4 cells/well) in 96-well culture plates. […] At 200 μg/ml, the compound started to show signs of toxicity, resulting in mortality of 25% of the cell monolayer. […] The control drug amphotericin B caused 5% mortality of the cell monolayer at the concentration tested (1 μg/ml).
J774 cell viability following incubation with PZA was also determined. Cells were seeded onto 8-well Labtek chambers as above and incubated with different concentrations of PZA (up to 1 mg/ml) for 48 h, stained with Diff-Quick and counted under light microscope. The percentage of viable cells was determined after quantifying the number of cells present per field (in 25 fields, ca. 500 cells). Percentage of survival and MIC50 were calculated as above.

L. major promastigotes = test: L. major promastigote drug treatment, parasite survival after 48 h; format: cell-based
Procedure: The effect of PZA was first investigated with promastigotes of L. major. PZA was diluted in medium and added to cultures. After 48 h, parasite multiplication was determined by counting parasites in culture. […] Incubation of L. major with 1 μg/ml amphotericin B (as a positive control) caused 100% mortality of promastigotes and 90% of amastigotes.
Mid-log phase (day 3 of culture) L. major promastigotes were employed. Parasite concentration was adjusted to 10^6 promastigotes/ml and seeded into 96-well plates in a volume of 100 μl (final concentration, 10^5 promastigotes/well). PZA was tested in triplicate in a concentration gradient from 1,000-0.5 μg/ml and added to the wells containing the parasite in a volume of 100 μl. A negative control was included with three wells containing only parasites and medium. The positive control consisted of amphotericin B (1 μg/ml). This concentration was previously employed by us because this concentration is equivalent to drug concentrations achieved in human plasma. After 48 h of incubation at 26° C., 10 μL of each well was diluted in 90 μL of the vital colorant (trypan blue in PBS) and the parasites were quantified in a Neubauer chamber. Data was normalized as percentage of survival compared to untreated controls. The Lethal Dose 50 (LD50) was extrapolated from the graph as the concentration of the products that inhibited the parasitic growth at 50% of the values of the negative control.

NC(=O)c1cnc(F)cn1 [5-Fl PZA]
MIC50 reduced relative to PZA (L. major amastigotes; L. major amastigotes within J774 cells): 100 fold
MIC50 for PZA analogs (L. major amastigotes; L. major amastigotes within J774 cells (Table Ia)): 0.08 μM

C[C@@H]1[C@H](O)[C@@H](C)/C=C/C=C/C=C/C=C/C=C/C=C/C=C/[C@H](O[C@@H]2O[C@H](C)[C@@H](O)[C@H](N)[C@@H]2O)C[C@@H]2O[C@](O)(C[C@@H](O)C[C@@H](O)[C@H](O)CC[C@@H](O)C[C@@H](O)CC(=O)O[C@H]1C)C[C@H](O)[C@H]2C(=O)O [Amphotericin B, amphotericin B]
mortality of amastigotes (L. major amastigotes; 1 μg/ml amphotericin B): 90%
percentage of survival compared to untreated control (L. major amastigotes; amastigote in J774, Amphotericin B 1 μg/ml, 48 h): 10 ± 5%
elimination of parasites from macrophage cultures (L. major amastigotes; amphotericin B 0.1 μg/ml, infected cells): total elimination of parasites
activation and cytokine expression of J774 cells (J774 cells): did not result in activation
mortality of the cell monolayer (uninfected J774 cells; amphotericin B 1 μg/ml): 5%
percentage of survival compared to untreated control (uninfected J774 cells; uninfected J774 cells, Amphotericin B 1 μg/ml, 48 h): 95 ± 16%
mortality of promastigotes (L. major promastigotes; 1 μg/ml amphotericin B): 100%
percentage of survival compared to untreated control (L. major promastigotes; promastigote, Amphotericin B 1 μg/ml, 48 h): 0%
